According to patent US7928140B2, “Benzothiazole PI3 kinase modulators for cancer treatment” (Amgen Inc., priority 2007, dated 2011):

What was measured:
[1] = test system: phosphorylation of Serine 473 in Akt, HCT 116 human colon carcinoma cells; assay: Cell-based phospho-AKT Ser473 assay (MSD sandwich immunoassay, IGF-1 stimulated); settings: Homo sapiens, HCT-116, HCT 116 cells; read-out: HCT 116 pAKT IC50
Summary of the method: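 Akt Ser473 phosphorylation was measured by MSD electrochemiluminescent sandwich immunoassay in lysates of HCT116 cells (16,000 cells/well). Cells received a compound dilution series for 2 h at 37 °C before a 15 min IGF-1 (100 ng/ml) stimulus, with IC50 calculated from the dose-response.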

PI3K β = biological target: T1, PI3K β (Homo sapiens, UniProt P42338); assay: In vitro PI3 kinase enzyme assay (beta), ATP loss, bioluminescence; assay type: biochemical; settings: read-out: PI3Kβ ATP loss IC50;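 note: purified p110β/p85 heterodimer with PtdIns(4,5)P2 as acceptor, incubated at room temperature, leftover ATP read by luminescence, inhibition scaled to compound-free wells with and without enzyme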
T1 construct: Full length p110 subunits of PI3K α, β and δ, N-terminally labeled with polyHis tag; polyHis (N); made in house; host or cells: Sf9 insect cells (baculovirus)
Experimental: Full length p110 subunits of PI3K α, β and δ, N-terminally labeled with polyHis tag, were co-expressed with p85 in baculovirus expression vectors in sf9 insect cells. P110/p85 heterodimers were purified by sequential Ni-NTA, Q-HP, and Superdex-100 chromatography. Purified α, β and δ isozymes were stored at −20° C. in 20 mM Tris, pH 8, 0.2M NaCl, 50% glycerol, 5 mM DTT, 2 mM Na cholate.
PI3K enzyme assays (alpha, beta, delta and gamma) were performed in 25 mL with the above final concentrations of components in white polypropylene plates (Costar catalogue #3355). Phosphatidyl inositol phosphoacceptor, PtdIns(4,5)P2 (eg. P4508) was obtained from Echelon Biosciences. The ATPase activity of the alpha and gamma isozymes was not greatly stimulated by PtdIns(4,5)P2 under these conditions and was therefore omitted from the assay of these isozymes. Test compounds were dissolved in DMSO and diluted with three-fold serial dilutions. The compound in DMSO (1 μL) was added per test well, and the inhibition relative to reactions containing no compound, with and without enzyme was determined. After assay incubation at RT, the reaction was stopped and residual ATP determined by addition of an equal volume of a commercial ATP bioluminescence kit (Perkin Elmer EasyLite) according to the manufacturer's instructions, and detected using an Analyst GT luminometer.

PI3K α = biological target: T2, PI3K α (Homo sapiens, UniProt P42336); assay: In vitro PI3 kinase enzyme assay (alpha), ATP loss, bioluminescence; assay type: biochemical; settings: read-out: PI3Kα ATP loss IC50;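 note: purified p110α/p85 heterodimer acting on PtdIns(4,5)P2 at room temperature, remaining ATP read by luminescence, inhibition scaled between compound-free wells with and without enzyme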
T2 construct: Full length p110 subunits of PI3K α, β and δ, N-terminally labeled with polyHis tag; polyHis (N); made in house; host or cells: Sf9 insect cells (baculovirus)
T2 sequence (P42336 whole entry, species assumed): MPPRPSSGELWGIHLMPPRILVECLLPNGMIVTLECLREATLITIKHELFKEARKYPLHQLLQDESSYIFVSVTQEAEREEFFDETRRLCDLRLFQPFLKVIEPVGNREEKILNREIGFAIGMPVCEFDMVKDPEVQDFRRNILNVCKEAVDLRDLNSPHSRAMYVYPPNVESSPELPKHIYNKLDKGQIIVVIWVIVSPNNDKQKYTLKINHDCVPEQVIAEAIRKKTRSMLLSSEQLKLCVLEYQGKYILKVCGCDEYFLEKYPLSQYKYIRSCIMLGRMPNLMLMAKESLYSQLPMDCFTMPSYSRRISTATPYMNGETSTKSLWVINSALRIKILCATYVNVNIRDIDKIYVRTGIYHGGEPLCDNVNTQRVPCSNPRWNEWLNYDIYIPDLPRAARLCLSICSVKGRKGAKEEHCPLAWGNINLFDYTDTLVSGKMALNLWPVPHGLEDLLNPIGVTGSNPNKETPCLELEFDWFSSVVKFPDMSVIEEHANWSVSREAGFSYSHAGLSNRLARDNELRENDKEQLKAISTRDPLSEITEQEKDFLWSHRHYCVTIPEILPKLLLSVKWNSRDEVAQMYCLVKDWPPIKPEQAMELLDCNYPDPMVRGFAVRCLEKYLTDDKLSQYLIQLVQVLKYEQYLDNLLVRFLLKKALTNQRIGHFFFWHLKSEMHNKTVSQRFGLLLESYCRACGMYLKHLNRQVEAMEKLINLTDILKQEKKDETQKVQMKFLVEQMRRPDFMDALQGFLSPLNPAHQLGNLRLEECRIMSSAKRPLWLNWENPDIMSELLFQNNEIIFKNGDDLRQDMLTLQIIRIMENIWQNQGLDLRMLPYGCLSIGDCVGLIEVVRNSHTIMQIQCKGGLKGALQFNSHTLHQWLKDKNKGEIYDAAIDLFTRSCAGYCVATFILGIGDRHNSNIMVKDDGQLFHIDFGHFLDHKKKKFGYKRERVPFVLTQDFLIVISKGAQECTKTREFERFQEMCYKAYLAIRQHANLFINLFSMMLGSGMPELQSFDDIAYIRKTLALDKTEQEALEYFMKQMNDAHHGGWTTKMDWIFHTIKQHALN
T2 sequence (P27986 whole entry partner, species assumed): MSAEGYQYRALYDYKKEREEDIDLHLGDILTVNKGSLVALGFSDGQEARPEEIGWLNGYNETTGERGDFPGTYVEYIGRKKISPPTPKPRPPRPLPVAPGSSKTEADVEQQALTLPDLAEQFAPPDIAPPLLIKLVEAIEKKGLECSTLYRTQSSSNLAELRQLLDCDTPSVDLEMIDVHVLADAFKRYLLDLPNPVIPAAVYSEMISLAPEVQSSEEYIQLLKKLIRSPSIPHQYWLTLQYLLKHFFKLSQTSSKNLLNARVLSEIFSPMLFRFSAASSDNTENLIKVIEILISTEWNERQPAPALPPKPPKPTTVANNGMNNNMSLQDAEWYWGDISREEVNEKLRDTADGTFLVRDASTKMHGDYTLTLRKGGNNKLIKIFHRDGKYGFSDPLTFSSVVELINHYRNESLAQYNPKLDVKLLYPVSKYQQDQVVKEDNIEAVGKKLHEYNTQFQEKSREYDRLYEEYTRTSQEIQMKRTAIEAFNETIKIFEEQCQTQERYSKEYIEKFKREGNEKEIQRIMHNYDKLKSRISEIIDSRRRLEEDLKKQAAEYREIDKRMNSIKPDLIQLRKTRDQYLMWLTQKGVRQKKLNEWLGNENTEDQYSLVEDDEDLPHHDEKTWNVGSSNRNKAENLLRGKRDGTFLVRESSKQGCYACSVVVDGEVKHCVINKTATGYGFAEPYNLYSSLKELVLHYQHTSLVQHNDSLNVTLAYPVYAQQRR

T1 sequence (P42338 whole entry): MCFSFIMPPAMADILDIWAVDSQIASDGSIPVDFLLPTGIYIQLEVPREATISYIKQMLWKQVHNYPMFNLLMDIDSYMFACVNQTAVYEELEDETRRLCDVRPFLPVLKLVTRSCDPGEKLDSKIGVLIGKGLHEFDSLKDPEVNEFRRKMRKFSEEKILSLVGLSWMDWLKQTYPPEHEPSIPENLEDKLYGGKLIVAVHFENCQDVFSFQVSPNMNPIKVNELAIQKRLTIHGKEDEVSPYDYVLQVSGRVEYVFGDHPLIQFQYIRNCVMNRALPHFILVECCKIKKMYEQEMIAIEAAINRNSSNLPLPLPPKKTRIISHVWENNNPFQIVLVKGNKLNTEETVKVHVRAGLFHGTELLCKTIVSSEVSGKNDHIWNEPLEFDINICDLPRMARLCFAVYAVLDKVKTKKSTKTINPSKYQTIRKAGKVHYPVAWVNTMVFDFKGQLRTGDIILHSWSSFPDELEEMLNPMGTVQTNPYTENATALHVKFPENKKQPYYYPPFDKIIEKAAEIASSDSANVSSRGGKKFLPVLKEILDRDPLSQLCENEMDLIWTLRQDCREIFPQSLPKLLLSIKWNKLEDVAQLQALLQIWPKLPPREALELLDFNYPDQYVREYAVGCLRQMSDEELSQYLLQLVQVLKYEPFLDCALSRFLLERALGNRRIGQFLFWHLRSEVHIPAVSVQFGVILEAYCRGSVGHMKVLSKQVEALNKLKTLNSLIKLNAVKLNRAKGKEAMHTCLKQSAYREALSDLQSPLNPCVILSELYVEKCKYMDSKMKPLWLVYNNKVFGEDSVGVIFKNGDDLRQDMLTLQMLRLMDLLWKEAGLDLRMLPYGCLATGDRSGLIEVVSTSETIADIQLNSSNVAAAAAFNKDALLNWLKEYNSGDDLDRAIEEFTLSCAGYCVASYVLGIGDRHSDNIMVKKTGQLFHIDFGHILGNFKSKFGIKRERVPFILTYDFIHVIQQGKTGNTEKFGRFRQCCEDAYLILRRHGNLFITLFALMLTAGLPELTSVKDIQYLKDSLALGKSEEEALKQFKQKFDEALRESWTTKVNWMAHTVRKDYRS
T1 sequence (P27986 whole entry partner): as the sequence (P27986 whole entry partner, species assumed) above

SMILES	IC50 [1] [µM]	IC50 (PI3K β) [µM]	IC50 (PI3K α) [µM]
COc1cccc(COc2nccc(-c3ccc4nc(NC(C)=O)sc4c3)n2)c1 [Example 108, N-(6-(2-((3-methoxybenzyl)oxy)-4-pyrimidinyl)-1,3-benzothiazol-2-yl)acetamide]	0.682	0.292	0.0967
CC(=O)Nc1nc2ccc(-c3cncc(Sc4ccccc4F)n3)cc2s1 [Example 130, N-(6-(6-((2-fluorophenyl)sulfanyl)-2-pyrazinyl)-1,3-benzothiazol-2-yl)acetamide]	0.442	0.065	0.039
CNc1nc2ccc(-c3cnc(Cl)c(NS(=O)(=O)c4ccccc4F)c3)cc2s1 [Example 320, N-(2-chloro-5-(2-(methylamino)-1,3-benzothiazol-6-yl)-3-pyridinyl)-2-fluorobenzenesulfonamide]	0.448	0.0618	0.0146
CC(C)Nc1cc(-c2ccc3nc(N)sc3c2)cnc1Cl [Example 155, 6-(6-chloro-5-((1-methylethyl)amino)-3-pyridinyl)-1,3-benzothiazol-2-amine]	1.99	1.15	0.509
COCCNc1nccc(-c2ccc3nc(NC(C)=O)sc3c2)n1 [Example 47, N-(6-(2-((2-methoxyethyl)amino)-4-pyrimidinyl)-1,3-benzothiazol-2-yl)acetamide]	1.15	18.4	0.696
CNc1nc2ccc(-c3cnc(Cl)c(NS(=O)(=O)c4c(Cl)cccc4Cl)c3)cc2s1 [Example 319, 2,6-dichloro-N-(2-chloro-5-(2-(methylamino)-1,3-benzothiazol-6-yl)-3-pyridinyl)benzenesulfonamide]	0.474	0.0365	0.0092
COc1ccc(Sc2ncc(-c3ccc4nc(NC(C)=O)sc4c3)s2)cc1 [Example 62, N-(6-(2-(4-methoxyphenylthio)thiazol-5-yl)benzo[d]thiazol-2-yl)acetamide]	2.58	5.21	0.0299
COc1ccc(S(=O)(=O)Nc2cc(-c3ccc4nc(NC(C)=O)sc4c3)cnc2C#N)cc1 [Example 267, N-(6-(6-cyano-5-(4-methoxyphenylsulfonamido)pyridin-3-yl)benzo[d]thiazol-2-yl)acetamide]	1.43	0.0209	0.0145
COCC(=O)Nc1nc2ccc(-c3cnc(Cl)c(NC(C)C)c3)cc2s1 [Example 144, N-(6-(6-chloro-5-((1-methylethyl)amino)-3-pyridinyl)-1,3-benzothiazol-2-yl)-2-methoxyacetamide]	0.723	1.57	0.112
COc1ccc(Sc2nccc(-c3ccc4nc(NC(C)=O)sc4c3)n2)c(C)c1 [Example 27, N-(6-(2-((4-methoxy-2-methylphenyl)sulfanyl)-4-pyrimidinyl)-1,3-benzothiazol-2-yl)acetamide]	0.594	0.201	0.04
CC(=O)Nc1nc2ccc(-c3ccnc(OCCCn4ccnn4)n3)cc2s1 [Example 20, N-(6-(2-(3-(1H-1,2,3-triazol-1-yl)propoxy)-4-pyrimidinyl)-1,3-benzothiazol-2-yl)acetamide]	1.93	5.24	0.266
CC(=O)Nc1nc2ccc(-c3ccnc(OCCCc4ccccc4)n3)cc2s1 [Example 4, N-(6-(2-(3-phenylpropoxy)-4-pyrimidinyl)-1,3-benzothiazol-2-yl)acetamide]	2.37	0.386	0.151
CCOc1cc(-c2ccc3nc(NC(C)=O)sc3c2)cnc1Cl [Example 239, N-(6-(6-chloro-5-ethoxypyridin-3-yl)benzo[d]thiazol-2-yl)acetamide]	2.96	3.79	0.0538

The next compounds have a lower IC50 [1] than those just listed; values first:

IC50 [1] [µM]	IC50 (PI3K β) [µM]	IC50 (PI3K α) [µM]	SMILES
0.408	0.062	0.0343	CC(=O)Nc1nc2ccc(-c3ccnc(NS(=O)(=O)c4ccc(C)cc4)n3)cc2s1 [Example 83, N-(6-(2-(((4-methylphenyl)sulfonyl)amino)-4-pyrimidinyl)-1,3-benzothiazol-2-yl)acetamide]
0.312	1.23	0.0515	COCC(=O)Nc1nc2ccc(-c3cnc(Cl)c(N(C)C)c3)cc2s1 [Example 271, N-(6-(6-Chloro-5-(dimethylamino)pyridin-3-yl)benzo[d]thiazol-2-yl)-2-methoxyacetamide]
0.296	0.284	0.0465	COc1cccc(S(=O)(=O)c2cccc(-c3ccc4nc(NC(C)=O)sc4c3)n2)c1 [Example 69, N-(6-(6-((3-methoxyphenyl)sulfonyl)-2-pyridinyl)-1,3-benzothiazol-2-yl)acetamide]
0.205	0.0127	0.0025	Nc1nc2ccc(-c3cnc(Cl)c(NS(=O)(=O)c4ccccc4C(F)(F)F)c3)cc2s1 [Example 314, N-(5-(2-amino-1,3-benzothiazol-6-yl)-2-chloro-3-pyridinyl)-2-(trifluoromethyl)benzenesulfonamide]
0.0794	0.12	0.0351	CC(=O)Nc1nc2ccc(-c3ccnc(NS(=O)(=O)c4ccc(C)cc4)c3)cc2s1 [Example 216, N-(6-(2-(4-methylphenylsulfonamido)pyridin-4-yl)benzo[d]thiazol-2-yl)acetamide]
0.0567	0.221	0.0199	CC(=O)Nc1nc2ccc(-c3cnc(Cl)c(N(C)C)c3)cc2s1 [Example 269, N-(6-(6-Chloro-5-(dimethylamino)pyridin-3-yl)benzo[d]thiazol-2-yl)acetamide]
0.0363	0.0349	0.0154	CCCS(=O)(=O)Nc1cc(-c2ccc3nc(NC(C)=O)sc3c2)cnc1Cl [Example 177, N-(6-(6-chloro-5-(propylsulfonamido)pyridin-3-yl)benzo[d]thiazol-2-yl)acetamide]
0.0294	0.0307	0.0127	CC(=O)Nc1nc2ccc(-c3cnc(Cl)c(NS(=O)(=O)C(C)C)c3)cc2s1 [Example 179, N-(6-(6-chloro-5-(propan-2-ylsulfonamido)pyridin-3-yl)benzo[d]thiazol-2-yl)acetamide]
0.0182	0.0124	0.0103	CC(=O)Nc1nc2ccc(-c3cnc(Cl)c(NS(=O)(=O)c4cc(F)cc(F)c4)c3)cc2s1 [Example 176, N-(6-(6-chloro-5-(3,5-difluorophenylsulfonamido)pyridin-3-yl)benzo[d]thiazol-2-yl)acetamide]
0.0067	0.013	0.0064	CC(=O)Nc1nc2ccc(-c3cnc(C)c(NS(=O)(=O)c4cccc(C(F)(F)F)c4)c3)cc2s1 [Example 113, N-(6-(6-methyl-5-(((3-(trifluoromethyl)phenyl)sulfonyl)amino)-3-pyridinyl)-1,3-benzothiazol-2-yl)acetamide]
0.0038	0.0038	0.003	COc1ccc(S(=O)(=O)Nc2cc(-c3ccc4nc(NC(C)=O)sc4c3)cnc2Cl)cc1 [Example 163, N-(6-(6-Chloro-5-(4-methoxyphenylsulfonamido)pyridin-3-yl)benzo[d]thiazol-2-yl)acetamide]
